Assay results reported in patent US12564595B2, “Prophylactic and therapeutic pharmaceutical agent for HIV infectious diseases characterized by comprising combination of integrase inhibitor and anti-HIV agent” (Shionogi & Co., Ltd., priority 2019, dated 2026).

How the values were obtained:
HIV [1] = assay: Test Example 16: anti-HIV activity in the presence of human serum protein (MT-4 cells); assay type: cell-based; conditions: 100% extrapolation value, PS=4×(EC50 with 25% human serum protein/EC50 with no human serum protein)
Procedure: A stage dilution series of the test samples was created on a 96-well microplate (50 μL/well).
Aliquots of human serum protein solution (human serum protein concentration 50%) were dispensed in the amount of 100 μL/well to a 96-well microplate containing the test sample. This was then left to stand for 1 h at room temperature. Culture medium in the amount of 100 μL/well in each case was dispensed to a serum-free plate for control purposes. Aliquots of MT-4 cells in the amount of 3.0×10^5/well and HIV virus liquid in the amount of 3 μL/well were mixed for the necessary number of wells and reacted for 1 h at 37° C. After the reaction, the cell suspension was centrifuged and the supernatant discarded; aliquots of infected cells were distributed to culture medium in the amount of 50 μL/well and were dispensed in the amount of 50 μL/well in each case into the wells of a 96-well microplate containing test samples and human serum protein (human serum protein concentration: 25%). Mixing was performed using a plate mixer and culturing was performed for four days with a CO2 incubator. […] MTT(3-(4, 5-dimethylthiazol-2-yl)-2, 5-diphenyltetrazolium bromide) liquid in the amount of 30 μL was dispensed to each of the wells. The reaction was performed for 1 h in a CO2 incubator. 150 μL supernatant was removed to avoid aspirating cells from the wells. 150 μL of cell solution was added and thorough mixing was performed, using a plate mixer, until all the cells were dissolved. The optical absorbance on the mixed plate was measured at two wavelengths, namely, 560 nm/690 nm, using a microplate reader.
Next, the potency shift (PS) was calculated, using the following formula. The PS is the value of the human serum protein concentration, extrapolated to 100%.

[2] = Test Example 8: metabolic stability test; assay type: in vitro ADME, human; conditions: pooled human liver microsomes, 30 min at 37° C., NADPH, compound concentration 0.5 μmol/L
Outline: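 Pooled human liver microsomes (0.5 mg protein/mL, Tris-HCl pH 7.4) incubated with compound and 1 mmol/L NADPH for 0 or 30 min at 37° C. After methanol/acetonitrile quench, remaining parent was quantified by LC/MS/MS or SPE/MS and expressed as % of the 0 min amount.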

[3] = test system: HIV mutant strain 1 (E138K/G140S/Q148H/N155H); assay: Test Example 2: resistance evaluation test (HeLa-CD4 reporter), mutant strain 1; assay type: cell-based; conditions: FC=EC50 of mutant strain/EC50 of wild strain; HeLa-CD4 cells
Outline: (§1)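 HeLa-CD4 reporter cells were infected with wild-type or mutant HIV in the presence of serially diluted compound and cultured 3 days. Cell lysates were read by chemiluminescent reporter assay after about 1 h at room temperature. Fold change was calculated as mutant EC50 divided by wild-type EC50.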

HIV [4] = assay: microbe, parasite or virus in culture; assay type: cell-based; conditions: Human immunodeficiency virus 1, MT4, 96 h, read-out: EC50 (50% HIV inhibition concentration), MT-4 cells, HIV, cultured four days, MTT; compounds of formula (I) of (A)
Procedure: A serial dilution series of test samples was prepared in 96-well microplates (50 μL/well).
100 μL/well in each case were dispensed onto plates having test samples of 2.5×10^5/mL MT-4 cell suspension, and HIV virus solution was then dispensed thereto in the amount of 50 μL/well. Mixing was performed using a plate mixer and culturing was performed for four days in a CO2 incubator. MTT (3-(4,5-dimethylthiazol-2-yl)-2,5-diphenyltetrazolium bromide) liquid was dispensed into each well in the amount of 30 μL in each case. The reaction was conducted for 1 h in a CO2 incubator. 150 μL of supernatant were removed from each well, taking care not to aspirate any cells. 150 μL of cell solution were added, and thorough mixing was performed with a plate mixer until all the cells had been dissolved. The optical absorbance of the mixed plates was measured at two wavelengths: 560 nm/690 nm, with a microplate reader.

[5] = target: T1, voltage-gated sodium channel (Nav 1.5 channel) (Homo sapiens, UniProt Q14524); assay: Test Example 14: Nav test (patch clamp, HEK cells); assay type: cell-based; conditions: HEK cells expressing Nav 1.5 channel, whole cell patch clamp
T1 construct: expressed in transfected cells; host or cells: HEK cells
Procedure: Using a fully automatic patch clamp system (QPatch: Sophion Bioscience A/S), by the whole cell patch clamp method, the cells were maintained at a membrane potential of −100 mV and the induced INa when a −10 mV depolarization stimulus was applied for 20 msec was recorded. […] From the INa obtained, using analysis software (QPatch: Sophion Bioscience A/S), the absolute value of the maximum peak current was measured, with reference to the current value at the maintained membrane potential.

[6] = test system: HIV mutant strain 2 (E92Q/E138T/G140S/Q148H); assay: Test Example 2: resistance evaluation test (HeLa-CD4 reporter), mutant strain 2; assay type: cell-based; conditions: FC=EC50 of mutant strain/EC50 of wild strain; HeLa-CD4 cells
Outline: as §1

HIV [7] = assay: Test Example 3: test for confirmation of combined use effect; assay type: cell-based; design: key to D value (dosewise additivity value): <-0.1 synergy, -0.1 to 0.1 additive, >0.1 antagonism
From the text: The two compounds in respect of which the effect of combined use was desired to be examined were mixed in various ratios, and the anti-HIV activity (50% HIV inhibiting concentration) for each combination was found by the method of test example 1. […] A brief description of the method of calculating the D value is given below.
The D value that is found by evaluating the anti-HIV activity of respective combinations of M concentrations of compound X1 and N concentrations of compound X2 is calculated by the following mathematical expression 1.
The effect of combined use was evaluated in terms of the D value in accordance with the following criteria • −0.5 to −0.2: strong synergetic effect • −0.2 to −0.1: weak synergetic effect • […]: additive synergetic effect • 0.1 to 0.2: weak antagonism • 0.2 to 0.5: strong antagonism

[8] = combination with compound (B) Compound C (CAI)
[9] = combination with compound (B) Darunavin (PI)
[10] = combination with compound (B) Darunavir (PI)
[11] = combination with compound (B) GS-6207 (CAI)
[12] = combination with compound (B) GSK2838232 (maturation inhibitor)
[13] = combination with compound (B) I′-189 (INLAI)
[14] = combination with compound (B) Lilpiperine (polymerase inhibitor)
[15] = combination with compound (B) Ramipzin (3TC) (polymerase inhibitor)
[16] = combination with compound (B) Rilpivirine (polymerase inhibitor)
[17] = combination with compound (B) VM-1500 (polymerase inhibitor)

T1 sequence (Q14524 whole entry): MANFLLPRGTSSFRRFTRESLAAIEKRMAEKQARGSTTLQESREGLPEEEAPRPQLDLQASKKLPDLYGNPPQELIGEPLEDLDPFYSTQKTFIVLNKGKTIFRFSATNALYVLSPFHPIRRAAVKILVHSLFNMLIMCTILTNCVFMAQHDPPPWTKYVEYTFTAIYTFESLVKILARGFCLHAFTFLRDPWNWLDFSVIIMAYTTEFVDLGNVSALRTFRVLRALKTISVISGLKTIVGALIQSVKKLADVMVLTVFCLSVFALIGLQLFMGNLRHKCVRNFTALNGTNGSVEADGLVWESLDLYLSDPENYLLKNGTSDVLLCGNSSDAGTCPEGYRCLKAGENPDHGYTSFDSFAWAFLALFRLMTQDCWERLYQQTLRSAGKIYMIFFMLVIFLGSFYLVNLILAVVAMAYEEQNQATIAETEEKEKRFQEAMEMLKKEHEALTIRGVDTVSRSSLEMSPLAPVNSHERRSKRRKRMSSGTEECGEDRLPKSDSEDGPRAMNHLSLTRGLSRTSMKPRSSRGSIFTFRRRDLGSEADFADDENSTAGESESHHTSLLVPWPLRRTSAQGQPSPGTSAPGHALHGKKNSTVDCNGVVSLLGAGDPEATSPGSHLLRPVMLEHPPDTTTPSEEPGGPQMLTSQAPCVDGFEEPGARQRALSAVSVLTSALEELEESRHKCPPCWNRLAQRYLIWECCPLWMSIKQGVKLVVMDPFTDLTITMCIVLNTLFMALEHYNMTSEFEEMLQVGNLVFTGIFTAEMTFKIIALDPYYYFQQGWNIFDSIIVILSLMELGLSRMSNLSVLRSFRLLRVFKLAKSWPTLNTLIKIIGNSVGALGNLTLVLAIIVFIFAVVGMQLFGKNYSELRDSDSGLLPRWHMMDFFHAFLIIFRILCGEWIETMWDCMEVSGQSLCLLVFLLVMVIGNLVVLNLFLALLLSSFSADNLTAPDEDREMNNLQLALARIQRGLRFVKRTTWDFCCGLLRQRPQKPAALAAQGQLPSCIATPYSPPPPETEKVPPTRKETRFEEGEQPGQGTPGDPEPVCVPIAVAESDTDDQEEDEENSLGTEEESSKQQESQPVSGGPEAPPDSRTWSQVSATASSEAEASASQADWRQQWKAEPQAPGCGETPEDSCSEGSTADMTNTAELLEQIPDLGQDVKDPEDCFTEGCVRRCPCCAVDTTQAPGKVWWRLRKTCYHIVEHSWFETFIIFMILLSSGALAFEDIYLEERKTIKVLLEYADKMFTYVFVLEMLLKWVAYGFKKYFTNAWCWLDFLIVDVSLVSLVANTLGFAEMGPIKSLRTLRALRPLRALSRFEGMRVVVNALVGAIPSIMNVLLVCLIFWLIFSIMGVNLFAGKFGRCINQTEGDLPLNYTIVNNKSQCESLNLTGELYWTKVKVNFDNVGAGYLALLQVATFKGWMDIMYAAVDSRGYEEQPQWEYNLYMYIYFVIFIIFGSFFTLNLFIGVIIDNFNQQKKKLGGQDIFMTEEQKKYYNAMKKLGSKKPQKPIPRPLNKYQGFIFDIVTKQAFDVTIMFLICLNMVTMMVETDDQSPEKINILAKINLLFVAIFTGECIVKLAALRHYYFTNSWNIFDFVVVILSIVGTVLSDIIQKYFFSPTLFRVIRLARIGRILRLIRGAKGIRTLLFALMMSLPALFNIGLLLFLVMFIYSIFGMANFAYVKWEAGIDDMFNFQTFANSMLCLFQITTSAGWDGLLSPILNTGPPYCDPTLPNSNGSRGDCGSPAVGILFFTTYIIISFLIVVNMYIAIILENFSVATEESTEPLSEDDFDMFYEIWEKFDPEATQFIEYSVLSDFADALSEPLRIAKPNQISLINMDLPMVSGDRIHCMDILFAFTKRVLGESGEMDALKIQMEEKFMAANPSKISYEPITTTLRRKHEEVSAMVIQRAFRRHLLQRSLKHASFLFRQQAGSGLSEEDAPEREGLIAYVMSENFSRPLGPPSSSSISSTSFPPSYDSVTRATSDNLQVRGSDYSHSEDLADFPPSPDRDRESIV

| SMILES | potency shift (PS) in the presence of human serum protein (HIV [1]) | Remaining percentage [2] [%] | FC in respect of mutant strain 1 (E138K/G140S/Q148H/N155H) [3] | EC50 (HIV [4]) [nM] | ratio of maximum peak current (INa) on application of compound to that on application of medium [5] [%] | FC in respect of mutant strain 2 (E92Q/E138T/G140S/Q148H) [6] | D value (dosewise additivity value) (HIV [7]; [8]) | effect of combined use (HIV [7]; [8]) | D value (dosewise additivity value) (HIV [7]; [9]) | effect of combined use (HIV [7]; [10]) | D value (dosewise additivity value) (HIV [7]; [11]) | effect of combined use (HIV [7]; [11]) | D value (dosewise additivity value) (HIV [7]; [12]) | effect of combined use (HIV [7]; [12]) | effect of combined use (HIV [7]; [14]) | D value (dosewise additivity value) (HIV [7]; [15]) | effect of combined use (HIV [7]; [15]) | D value (dosewise additivity value) (HIV [7]; [16]) | other results |
| --- | --- | --- | --- | --- | --- | --- | --- | --- | --- | --- | --- | --- | --- | --- | --- | --- | --- | --- | --- |
| CCN1C(=O)c2c(O)c(=O)c(-c3nnc(Cc4c(F)cc(F)cc4F)s3)cn2N2CCCC[C@@H]12 [Compound I-007] | 116 | 97.7 | 3.8 | 1.6 | 103 | 6.9 | 0.059 | Additive (−0.1 to −0.1: additive synergetic effect) | −0.096 | Additive (−0.1 to −0.1: additive synergetic effect) | −0.040 | Additive (−0.1 to −0.1: additive synergetic effect) | 0.017 | Additive (−0.1 to −0.1: additive synergetic effect) | Additive (−0.1 to −0.1: additive synergetic effect) | −0.231 | Strong synergy (−0.5 to −0.2: strong synergetic effect) | −0.054 | D value (dosewise additivity value) (HIV [7]; [13]): 0.053; effect of combined use (HIV [7]; [13]): Additive (−0.1 to −0.1: additive synergetic effect); D value (dosewise additivity value) (HIV [7]; [17]): −0.097; effect of combined use (HIV [7]; [17]): Additive (−0.1 to −0.1: additive synergetic effect) |
| CCN1C(=O)c2c(O)c(=O)c(-c3nnc(Cc4cc(F)c(F)cc4F)s3)cn2N2CCCC[C@@H]12 [Compound I-022] |  | 72.2 | 23 | 4.8 | 97.1 | 46 |  |  |  |  |  |  |  |  |  |  |  |  |  |
| COC[C@@H]1CC[C@H]2N(C)C(=O)c3c(O)c(=O)c(C(=O)NCc4cccc(Cl)c4F)cn3N12 [II-026] | 364 | 86 | 10 |  | 79 | 6.9 | 0.043 | Additive (−0.1 to −0.1: additive synergetic effect) | −0.137 | Weak synergy (−0.2 to −0.1: weak synergetic effect) | −0.043 | Additive (−0.1 to −0.1: additive synergetic effect) | −0.061 | Additive (−0.1 to −0.1: additive synergetic effect) | Additive (−0.1 to −0.1: additive synergetic effect) | −0.232 | Strong synergy (−0.5 to −0.2: strong synergetic effect) | −0.077 | D value (dosewise additivity value) (HIV [7]; [13]): 0.056; effect of combined use (HIV [7]; [13]): Additive (−0.1 to −0.1: additive synergetic effect); D value (dosewise additivity value) (HIV [7]; [17]): −0.155; effect of combined use (HIV [7]; [17]): Weak synergy (−0.2 to −0.1: weak synergetic effect) |
| CCN1C(=O)c2c(O)c(=O)c(C(=O)NCc3ccc(F)cc3F)cn2N2C[C@@H](C)C[C@@H]12 [II-045] | 236 | 96 | 19 |  |  | 21 |  |  |  |  |  |  |  |  |  |  |  |  |  |
| CN1C(=O)c2c(O)c(=O)c(-c3nnc(Cc4ccc(F)cc4F)s3)cn2N2CCCC[C@@H]12 [II-098] |  | 109 | 8.8 | 0.62 | 96.7 | 12 |  |  |  |  |  |  |  |  |  |  |  |  |  |
| CCN1C(=O)c2c(O)c(=O)c(-c3nnc(Cc4c(F)cc(F)cc4F)s3)cn2N2CCOC[C@@H]12 [II-106] |  | 95.3 | 15 | 0.52 | 109 | 20 |  |  |  |  |  |  |  |  |  |  |  |  |  |
| CCN1C(=O)c2c(O)c(=O)c(-c3nnc(Cc4ccc(F)cc4F)s3)cn2N2[C@H](COC)CC[C@@H]12 [II-110] |  | 96.5 | 8.2 | 0.13 | 89.3 | 11 | 0.075 | Additive (−0.1 to −0.1: additive synergetic effect) | −0.058 | Additive (−0.1 to −0.1: additive synergetic effect) | 0.025 | Additive (−0.1 to −0.1: additive synergetic effect) | −0.048 | Additive (−0.1 to −0.1: additive synergetic effect) | Additive (−0.1 to −0.1: additive synergetic effect) | −0.145 | Weak synergy (−0.2 to −0.1: weak synergetic effect) | −0.073 |  |
| CCN1C(=O)c2c(O)c(=O)c(-c3nnc(Cc4c(F)cc(F)cc4F)s3)cn2N2[C@H](COC)CC[C@@H]12 [II-117] |  | 93.4 | 10 | 0.62 | 88.8 | 11 |  |  |  |  |  |  |  |  |  |  |  |  |  |
| CCN1C(=O)c2c(O)c(=O)c(-c3nnc(Cc4ccc(F)cc4)s3)cn2N2[C@H](COC)CC[C@@H]12 [II-118] |  | 92.4 | 20 | 0.96 | 86.2 | 31 |  |  |  |  |  |  |  |  |  |  |  |  |  |
| C[C@H]1CC[C@H]2N(C)C(=O)c3c(O)c(=O)c(-c4nnc(Cc5ccc(F)cc5F)s4)cn3N2C1 [II-120] |  | 95.5 | 5.8 | 0.25 | 78.8 | 8 |  |  |  |  |  |  |  |  |  |  |  |  |  |
